Data reported in PubChem BioAssay (NCI).
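Where inhibition never reached the appropriate level, the endpoint shown equals the highest concentration tested. Otherwise, values were interpolated linearly from a five-concentration, 48-hour dose response in 96-well plates. TGI: concentration producing complete growth inhibition.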

Legend:
Assay in all cases: NCI-60 cell line screen, 48 h
TK-10 renal = test system: TK-10 renal
DU-145 prostate = test system: DU-145 prostate
ACHN renal = test system: ACHN renal
OVCAR-8 ovarian = test system: OVCAR-8 ovarian
SF-295 CNS = test system: SF-295 CNS
MOLT-4 leukemia = test system: MOLT-4 leukemia
EKVX NSCLC = test system: EKVX NSCLC
OVCAR-4 ovarian = test system: OVCAR-4 ovarian
SNB-19 CNS = test system: SNB-19 CNS
A498 renal = test system: A498 renal
SW-620 colon = test system: SW-620 colon
SF-268 CNS = test system: SF-268 CNS
U251 CNS = test system: U251 CNS
T-47D breast = test system: T-47D breast
SK-MEL-2 melanoma = test system: SK-MEL-2 melanoma
NCI-H226 lung = test system: NCI-H226 lung
SNB-75 CNS = test system: SNB-75 CNS
MCF7 breast = test system: MCF7 breast
HOP-92 NSCLC = test system: HOP-92 NSCLC
HL-60(TB) leukemia = test system: HL-60(TB) leukemia
SK-MEL-28 melanoma = test system: SK-MEL-28 melanoma
NCI-H522 lung = test system: NCI-H522 lung
NCI/ADR-RES ovarian = test system: NCI/ADR-RES ovarian
MDA-MB-231 breast = test system: MDA-MB-231 breast
UACC-257 melanoma = test system: UACC-257 melanoma
RXF 393 renal = test system: RXF 393 renal
SK-OV-3 ovarian = test system: SK-OV-3 ovarian
HT29 colon = test system: HT29 colon
HOP-62 NSCLC = test system: HOP-62 NSCLC
MDA-N = test system: MDA-N
NCI-H460 lung = test system: NCI-H460 lung
UO-31 renal = test system: UO-31 renal
A549 NSCLC = test system: A549 NSCLC
CAKI-1 renal = test system: CAKI-1 renal
MALME-3M melanoma = test system: MALME-3M melanoma
KM12 colon = test system: KM12 colon
UACC-62 melanoma = test system: UACC-62 melanoma
CCRF-CEM leukemia = test system: CCRF-CEM leukemia
MDA-MB-435 = test system: MDA-MB-435
OVCAR-5 ovarian = test system: OVCAR-5 ovarian
HS 578T breast = test system: HS 578T breast
HCT-15 colon = test system: HCT-15 colon
K-562 leukemia = test system: K-562 leukemia
HCT-116 colon = test system: HCT-116 colon
NCI-H23 lung = test system: NCI-H23 lung
IGROV1 ovarian = test system: IGROV1 ovarian
LOX IMVI melanoma = test system: LOX IMVI melanoma
SF-539 CNS = test system: SF-539 CNS
SK-MEL-5 melanoma = test system: SK-MEL-5 melanoma
PC-3 prostate = test system: PC-3 prostate
HCC-2998 colon = test system: HCC-2998 colon
786-0 renal = test system: 786-0 renal
COLO 205 colon = test system: COLO 205 colon
BT-549 breast = test system: BT-549 breast
M14 melanoma = test system: M14 melanoma
SN12C renal = test system: SN12C renal
OVCAR-3 ovarian = test system: OVCAR-3 ovarian

Measured: TGI

CCOC(=O)C(C)(C)Oc1ccc(Cl)cc1
496 µM: UACC-257 melanoma
> 1000 µM: TK-10 renal | DU-145 prostate | ACHN renal | OVCAR-8 ovarian | SF-295 CNS | EKVX NSCLC | OVCAR-4 ovarian | SNB-19 CNS | A498 renal | SW-620 colon | SF-268 CNS | U251 CNS | SNB-75 CNS | MCF7 breast | HL-60(TB) leukemia | SK-MEL-28 melanoma | NCI-H522 lung | NCI/ADR-RES ovarian | MDA-MB-231 breast | SK-OV-3 ovarian | HOP-62 NSCLC | MDA-N | NCI-H460 lung | UO-31 renal | A549 NSCLC | CAKI-1 renal | MALME-3M melanoma | KM12 colon | UACC-62 melanoma | CCRF-CEM leukemia | MDA-MB-435 | OVCAR-5 ovarian | HS 578T breast | HCT-15 colon | K-562 leukemia | HCT-116 colon | NCI-H23 lung | IGROV1 ovarian | SF-539 CNS | PC-3 prostate | HCC-2998 colon | 786-0 renal | BT-549 breast | M14 melanoma | SN12C renal
392 µM: SK-MEL-2 melanoma
329 µM: LOX IMVI melanoma
650 µM: HOP-92 NSCLC
325 µM: HT29 colon
294 µM: SK-MEL-5 melanoma
433 µM: RXF 393 renal
459 µM: COLO 205 colon
591 µM: MOLT-4 leukemia
682 µM: T-47D breast
429 µM: NCI-H226 lung

COc1ccccc1C1(c2c(OC(C)C)c(=O)c2=O)SCCCS1
> 100 µM: TK-10 renal | DU-145 prostate | ACHN renal | OVCAR-8 ovarian | SF-295 CNS | MOLT-4 leukemia | EKVX NSCLC | OVCAR-4 ovarian | SNB-19 CNS | A498 renal | SW-620 colon | SF-268 CNS | U251 CNS | T-47D breast | SK-MEL-2 melanoma | NCI-H226 lung | SNB-75 CNS | MCF7 breast | HOP-92 NSCLC | HL-60(TB) leukemia | SK-MEL-28 melanoma | NCI-H522 lung | NCI/ADR-RES ovarian | MDA-MB-231 breast | UACC-257 melanoma | RXF 393 renal | SK-OV-3 ovarian | HT29 colon | HOP-62 NSCLC | MDA-N | NCI-H460 lung | UO-31 renal | A549 NSCLC | CAKI-1 renal | KM12 colon | UACC-62 melanoma | CCRF-CEM leukemia | MDA-MB-435 | OVCAR-5 ovarian | HS 578T breast | OVCAR-3 ovarian | HCT-15 colon | HCT-116 colon | NCI-H23 lung | IGROV1 ovarian | LOX IMVI melanoma | SF-539 CNS | SK-MEL-5 melanoma | PC-3 prostate | 786-0 renal | COLO 205 colon | BT-549 breast | M14 melanoma | SN12C renal
